Source: patent publication US11208412B2 (DAEGU-GYEONGBUK MEDICAL INNOVATION FOUNDATION, priority 2017, dated 2021)
Where two headings read alike, the source gives them in different places.

What was measured:
Experiment in all cases: Kinase selectivity, DiscoverX scanMAX Kinase assay panel (% control)
Type in all cases: binding
[1] = target: T1, kinases of the scanMAX Kinase assay panel (Homo sapiens, UniProt P00533, L858R); conditions: EGFR(L858R); 1 uM
T1 construct: purchased DiscoverX Co. (contract measurement) scanMAX Kinase assay panel
Procedure, shortened: (§1)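 Each enzyme is treated with drug at 1 uM in DMSO, then signal is scaled between a positive control (0%) and DMSO (100%) to give % control. Kinases with % control under 35% are scored as inhibited.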

[2] = target: T2, kinases of the scanMAX Kinase assay panel (Homo sapiens, UniProt P00533, T790M); conditions: EGFR(T790M); 1 uM
T2 construct: purchased DiscoverX Co. (contract measurement) scanMAX Kinase assay panel
T2 sequence (P00533 25-1210 T790M): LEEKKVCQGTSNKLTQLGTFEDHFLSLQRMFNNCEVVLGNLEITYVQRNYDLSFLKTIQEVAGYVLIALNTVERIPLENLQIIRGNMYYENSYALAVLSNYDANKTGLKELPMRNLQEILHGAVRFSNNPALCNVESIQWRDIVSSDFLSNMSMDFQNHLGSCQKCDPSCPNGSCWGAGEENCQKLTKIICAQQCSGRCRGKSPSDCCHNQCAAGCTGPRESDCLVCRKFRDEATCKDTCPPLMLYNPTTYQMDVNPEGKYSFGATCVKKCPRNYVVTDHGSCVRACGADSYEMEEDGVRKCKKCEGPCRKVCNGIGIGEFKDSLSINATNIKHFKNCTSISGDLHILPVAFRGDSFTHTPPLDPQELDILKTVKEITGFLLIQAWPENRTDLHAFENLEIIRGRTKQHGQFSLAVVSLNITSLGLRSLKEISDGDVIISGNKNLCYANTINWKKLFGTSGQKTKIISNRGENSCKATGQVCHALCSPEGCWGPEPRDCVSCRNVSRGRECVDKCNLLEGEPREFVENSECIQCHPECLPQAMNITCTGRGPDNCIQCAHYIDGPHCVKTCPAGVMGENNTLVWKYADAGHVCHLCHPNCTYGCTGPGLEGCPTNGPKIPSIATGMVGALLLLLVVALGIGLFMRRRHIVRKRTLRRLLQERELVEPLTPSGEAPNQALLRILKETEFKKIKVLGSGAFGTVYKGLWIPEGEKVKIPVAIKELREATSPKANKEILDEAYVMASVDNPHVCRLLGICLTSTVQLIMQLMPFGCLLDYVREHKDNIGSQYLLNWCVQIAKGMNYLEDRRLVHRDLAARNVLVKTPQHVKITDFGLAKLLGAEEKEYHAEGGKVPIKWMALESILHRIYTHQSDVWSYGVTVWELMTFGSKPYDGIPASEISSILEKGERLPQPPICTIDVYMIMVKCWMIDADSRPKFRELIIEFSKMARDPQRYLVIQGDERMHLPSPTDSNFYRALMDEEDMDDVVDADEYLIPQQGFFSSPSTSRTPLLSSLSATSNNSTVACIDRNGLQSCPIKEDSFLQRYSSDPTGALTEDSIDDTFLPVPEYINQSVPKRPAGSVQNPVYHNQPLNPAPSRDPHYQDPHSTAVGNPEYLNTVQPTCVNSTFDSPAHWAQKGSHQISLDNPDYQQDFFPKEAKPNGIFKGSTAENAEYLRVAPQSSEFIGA
Procedure, shortened: as §1

[3] = target: T3, kinases of the scanMAX Kinase assay panel (Homo sapiens, UniProt P08581); conditions: MET; 1 uM
T3 construct: purchased DiscoverX Co. (contract measurement) scanMAX Kinase assay panel
T3 sequence (P08581 25-1390): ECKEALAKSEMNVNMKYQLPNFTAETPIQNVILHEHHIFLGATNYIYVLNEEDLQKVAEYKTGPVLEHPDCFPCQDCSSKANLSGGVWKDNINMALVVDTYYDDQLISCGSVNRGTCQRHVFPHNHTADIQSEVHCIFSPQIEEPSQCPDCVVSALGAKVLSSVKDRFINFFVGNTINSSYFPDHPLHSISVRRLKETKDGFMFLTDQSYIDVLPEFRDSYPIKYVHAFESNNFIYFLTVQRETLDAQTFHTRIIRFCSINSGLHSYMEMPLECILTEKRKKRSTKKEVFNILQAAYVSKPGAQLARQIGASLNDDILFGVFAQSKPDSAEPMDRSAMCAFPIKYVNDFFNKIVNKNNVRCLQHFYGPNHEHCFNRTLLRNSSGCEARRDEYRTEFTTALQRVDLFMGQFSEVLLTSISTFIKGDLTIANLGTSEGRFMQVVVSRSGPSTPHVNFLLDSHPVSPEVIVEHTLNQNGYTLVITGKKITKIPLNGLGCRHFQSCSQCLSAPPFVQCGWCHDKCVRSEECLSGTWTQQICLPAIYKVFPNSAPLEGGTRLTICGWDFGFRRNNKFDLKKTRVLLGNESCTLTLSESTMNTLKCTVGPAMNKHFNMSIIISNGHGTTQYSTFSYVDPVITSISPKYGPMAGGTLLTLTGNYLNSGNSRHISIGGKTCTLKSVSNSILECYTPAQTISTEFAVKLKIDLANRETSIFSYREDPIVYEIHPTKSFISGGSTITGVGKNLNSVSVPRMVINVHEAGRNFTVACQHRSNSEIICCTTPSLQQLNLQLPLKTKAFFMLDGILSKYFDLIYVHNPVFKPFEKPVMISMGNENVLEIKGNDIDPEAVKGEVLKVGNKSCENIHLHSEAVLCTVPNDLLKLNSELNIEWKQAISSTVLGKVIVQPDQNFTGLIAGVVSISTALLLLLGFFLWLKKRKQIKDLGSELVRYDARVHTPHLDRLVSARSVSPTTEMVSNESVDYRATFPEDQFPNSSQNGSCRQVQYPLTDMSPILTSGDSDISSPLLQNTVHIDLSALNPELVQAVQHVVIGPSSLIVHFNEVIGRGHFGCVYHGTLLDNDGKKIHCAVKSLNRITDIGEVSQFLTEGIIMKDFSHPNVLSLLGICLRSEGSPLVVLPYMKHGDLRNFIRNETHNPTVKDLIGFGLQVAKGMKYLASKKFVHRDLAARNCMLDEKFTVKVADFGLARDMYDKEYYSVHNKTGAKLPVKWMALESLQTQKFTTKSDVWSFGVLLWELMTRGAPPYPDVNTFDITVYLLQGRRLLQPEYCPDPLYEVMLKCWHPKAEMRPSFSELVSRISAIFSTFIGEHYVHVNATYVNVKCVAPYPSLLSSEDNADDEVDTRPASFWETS
Procedure, shortened: as §1

[4] = target: T4, kinases of the scanMAX Kinase assay panel (Homo sapiens, UniProt P0C1S8); conditions: kinase WEE2; 1 uM in DMSO
T4 construct: purchased DiscoverX Co. (contract measurement) scanMAX Kinase assay panel
T4 sequence (P0C1S8 whole entry): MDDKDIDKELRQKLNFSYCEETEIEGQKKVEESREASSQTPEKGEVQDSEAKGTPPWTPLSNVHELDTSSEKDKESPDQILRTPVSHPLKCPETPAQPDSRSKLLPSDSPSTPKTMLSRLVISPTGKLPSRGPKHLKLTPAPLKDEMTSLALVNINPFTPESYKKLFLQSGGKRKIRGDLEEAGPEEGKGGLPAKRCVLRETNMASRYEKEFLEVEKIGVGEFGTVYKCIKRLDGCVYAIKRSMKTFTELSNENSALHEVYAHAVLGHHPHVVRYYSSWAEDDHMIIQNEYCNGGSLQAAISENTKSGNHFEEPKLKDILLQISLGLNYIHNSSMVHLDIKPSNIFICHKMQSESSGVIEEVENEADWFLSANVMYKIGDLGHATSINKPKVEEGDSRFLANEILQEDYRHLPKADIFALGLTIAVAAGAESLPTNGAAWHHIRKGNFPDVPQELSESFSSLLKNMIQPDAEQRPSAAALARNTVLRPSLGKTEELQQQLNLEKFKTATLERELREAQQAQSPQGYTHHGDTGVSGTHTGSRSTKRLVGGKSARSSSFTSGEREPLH
Procedure, shortened: as §1

[5] = target: T5, kinases of the scanMAX Kinase assay panel (Homo sapiens, UniProt P10721, T670I/V559D); conditions: KIT(V559D, T670I); 1 uM
T5 construct: purchased DiscoverX Co. (contract measurement) scanMAX Kinase assay panel
T5 sequence (P10721 26-976 V559D/T670I): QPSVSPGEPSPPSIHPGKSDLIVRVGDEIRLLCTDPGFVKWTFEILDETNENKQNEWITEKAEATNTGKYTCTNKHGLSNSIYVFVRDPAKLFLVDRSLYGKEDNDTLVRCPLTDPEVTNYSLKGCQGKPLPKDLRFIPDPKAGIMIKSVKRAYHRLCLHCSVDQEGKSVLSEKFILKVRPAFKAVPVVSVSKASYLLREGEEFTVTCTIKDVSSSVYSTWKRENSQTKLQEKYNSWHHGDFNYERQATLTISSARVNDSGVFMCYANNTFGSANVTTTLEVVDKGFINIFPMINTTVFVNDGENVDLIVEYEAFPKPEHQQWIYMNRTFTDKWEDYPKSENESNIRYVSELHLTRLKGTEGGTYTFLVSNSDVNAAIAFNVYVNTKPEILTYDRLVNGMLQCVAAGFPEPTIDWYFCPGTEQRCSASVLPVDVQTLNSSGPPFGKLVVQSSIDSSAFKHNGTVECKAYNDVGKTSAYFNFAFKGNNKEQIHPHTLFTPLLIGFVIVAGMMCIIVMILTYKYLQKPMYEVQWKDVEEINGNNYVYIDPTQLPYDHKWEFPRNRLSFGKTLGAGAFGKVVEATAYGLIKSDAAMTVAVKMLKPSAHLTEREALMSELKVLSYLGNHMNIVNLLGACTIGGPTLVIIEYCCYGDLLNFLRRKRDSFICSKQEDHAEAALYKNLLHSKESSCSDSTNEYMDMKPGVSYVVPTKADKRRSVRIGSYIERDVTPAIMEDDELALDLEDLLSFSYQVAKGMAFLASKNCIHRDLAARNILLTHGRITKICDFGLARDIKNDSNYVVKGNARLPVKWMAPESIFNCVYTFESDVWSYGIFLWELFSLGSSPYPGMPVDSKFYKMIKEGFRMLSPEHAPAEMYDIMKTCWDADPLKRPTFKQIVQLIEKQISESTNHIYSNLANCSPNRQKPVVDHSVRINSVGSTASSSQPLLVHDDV
Procedure, shortened: as §1

[6] = target: T6, kinases of the scanMAX Kinase assay panel (Homo sapiens, UniProt P17612); conditions: PKAC-alpha; 1 uM
T6 construct: purchased DiscoverX Co. (contract measurement) scanMAX Kinase assay panel
Procedure, shortened: as §1

[7] = target: T7, kinases of the scanMAX Kinase assay panel (Homo sapiens, UniProt P17948); conditions: FLT1; 1 uM
T7 construct: purchased DiscoverX Co. (contract measurement) scanMAX Kinase assay panel
Procedure, shortened: as §1

[8] = target: T8, kinases of the scanMAX Kinase assay panel (Homo sapiens, UniProt P42345); conditions: MTOR; 1 uM
T8 construct: purchased DiscoverX Co. (contract measurement) scanMAX Kinase assay panel
Procedure, shortened: as §1

[9] = target: T9, kinases of the scanMAX Kinase assay panel (Homo sapiens, UniProt P51451); conditions: BLK; 1 uM
T9 construct: purchased DiscoverX Co. (contract measurement) scanMAX Kinase assay panel
T9 sequence (P51451 whole entry): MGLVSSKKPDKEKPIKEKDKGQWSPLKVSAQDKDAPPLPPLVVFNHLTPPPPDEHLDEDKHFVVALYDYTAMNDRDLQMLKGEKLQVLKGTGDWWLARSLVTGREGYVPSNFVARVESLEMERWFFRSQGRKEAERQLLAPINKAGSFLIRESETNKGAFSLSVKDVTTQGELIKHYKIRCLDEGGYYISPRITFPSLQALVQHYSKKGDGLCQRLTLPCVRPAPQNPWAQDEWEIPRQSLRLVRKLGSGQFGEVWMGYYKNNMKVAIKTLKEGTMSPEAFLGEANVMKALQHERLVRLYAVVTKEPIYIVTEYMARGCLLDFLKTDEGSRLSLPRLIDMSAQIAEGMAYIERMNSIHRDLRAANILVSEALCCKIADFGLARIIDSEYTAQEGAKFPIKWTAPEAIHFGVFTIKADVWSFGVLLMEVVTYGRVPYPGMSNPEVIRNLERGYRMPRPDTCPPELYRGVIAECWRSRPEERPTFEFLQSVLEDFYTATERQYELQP
Procedure, shortened: as §1

[10] = target: T10, kinases of the scanMAX Kinase assay panel (Homo sapiens, UniProt P53778); conditions: p38-gamma; 1 uM
T10 construct: purchased DiscoverX Co. (contract measurement) scanMAX Kinase assay panel
T10 sequence (P53778 1-367): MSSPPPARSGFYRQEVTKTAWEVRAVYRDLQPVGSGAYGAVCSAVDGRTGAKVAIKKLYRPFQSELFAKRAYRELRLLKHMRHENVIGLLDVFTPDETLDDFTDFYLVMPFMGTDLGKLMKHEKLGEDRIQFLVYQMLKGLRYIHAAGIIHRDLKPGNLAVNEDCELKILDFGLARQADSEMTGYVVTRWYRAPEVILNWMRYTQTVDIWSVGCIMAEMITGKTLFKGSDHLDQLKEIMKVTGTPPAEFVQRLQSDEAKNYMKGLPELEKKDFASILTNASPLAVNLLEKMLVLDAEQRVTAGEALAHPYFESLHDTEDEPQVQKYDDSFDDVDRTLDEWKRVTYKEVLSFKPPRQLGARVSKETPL
Procedure, shortened: as §1

[11] = target: T11, kinases of the scanMAX Kinase assay panel (Homo sapiens, UniProt Q15349); conditions: 1 uM in DMSO
T11 construct: purchased DiscoverX Co. (contract measurement) scanMAX Kinase assay panel
Procedure, shortened: as §1

[12] = target: T12, kinases of the scanMAX Kinase assay panel (Homo sapiens, UniProt Q15835); conditions: GRK1; 1 uM
T12 construct: purchased DiscoverX Co. (contract measurement) scanMAX Kinase assay panel
T12 sequence (Q15835 1-563): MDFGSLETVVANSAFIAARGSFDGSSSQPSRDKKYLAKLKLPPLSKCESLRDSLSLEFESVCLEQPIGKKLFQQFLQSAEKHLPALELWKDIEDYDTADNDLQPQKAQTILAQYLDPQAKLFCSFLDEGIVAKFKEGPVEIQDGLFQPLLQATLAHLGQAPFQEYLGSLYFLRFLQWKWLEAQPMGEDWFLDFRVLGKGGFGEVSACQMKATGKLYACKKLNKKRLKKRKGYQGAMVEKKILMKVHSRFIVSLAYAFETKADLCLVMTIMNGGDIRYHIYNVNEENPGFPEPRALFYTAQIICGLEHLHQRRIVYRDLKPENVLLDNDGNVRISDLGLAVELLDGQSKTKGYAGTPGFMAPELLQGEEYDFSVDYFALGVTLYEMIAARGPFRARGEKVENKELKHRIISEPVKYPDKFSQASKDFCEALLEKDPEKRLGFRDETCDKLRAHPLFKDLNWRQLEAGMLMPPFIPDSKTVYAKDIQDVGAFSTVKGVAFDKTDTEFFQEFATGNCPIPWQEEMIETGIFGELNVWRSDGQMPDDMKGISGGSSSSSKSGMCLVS
Procedure, shortened: as §1

[13] = target: T13, kinases of the scanMAX Kinase assay panel (Homo sapiens, UniProt Q9Y616); conditions: IRAK3; 1 uM
T13 construct: purchased DiscoverX Co. (contract measurement) scanMAX Kinase assay panel
T13 sequence (Q9Y616 1-596): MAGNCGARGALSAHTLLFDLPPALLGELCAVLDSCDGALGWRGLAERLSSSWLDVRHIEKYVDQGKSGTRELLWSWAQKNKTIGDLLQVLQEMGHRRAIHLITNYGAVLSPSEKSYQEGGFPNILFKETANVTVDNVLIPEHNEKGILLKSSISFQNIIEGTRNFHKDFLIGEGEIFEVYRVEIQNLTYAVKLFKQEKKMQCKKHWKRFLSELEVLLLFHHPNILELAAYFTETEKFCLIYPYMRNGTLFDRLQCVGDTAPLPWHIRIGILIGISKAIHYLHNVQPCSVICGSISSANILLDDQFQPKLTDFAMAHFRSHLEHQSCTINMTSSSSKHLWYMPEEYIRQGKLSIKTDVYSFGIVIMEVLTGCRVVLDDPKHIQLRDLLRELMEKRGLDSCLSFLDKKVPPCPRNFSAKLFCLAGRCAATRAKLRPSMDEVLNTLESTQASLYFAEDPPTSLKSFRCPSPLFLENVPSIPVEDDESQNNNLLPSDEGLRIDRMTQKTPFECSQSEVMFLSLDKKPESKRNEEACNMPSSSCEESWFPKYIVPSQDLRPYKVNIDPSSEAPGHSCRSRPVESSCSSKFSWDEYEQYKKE
Procedure, shortened: as §1

[14] = kinase RSK3(Kin.Dom.1-N-terminal), read-out: % control, RSK3(Kin.Dom.1-N-terminal)
[15] = kinase RSK3(Kin.Dom.2-C-terminal), read-out: % control, RSK3(Kin.Dom.2-C-terminal)

Structure (SMILES) | remaining binding at 1 µM [1] | remaining binding at 1 µM [2] | remaining binding at 1 µM [3] | remaining binding at 1 µM [4] | remaining binding at 1 µM [5] | remaining binding at 1 µM [6] | remaining binding at 1 µM [7] | remaining binding at 1 µM [8] | remaining binding at 1 µM [9] | remaining binding at 1 µM [10] | remaining binding at 1 µM [11, 14] | remaining binding at 1 µM [11, 15] | remaining binding at 1 µM [12] | remaining binding at 1 µM [13]
CCNc1nc(Nc2ccc(C(=O)N3CCC(N4CCOCC4)CC3)cc2OC)nc2[nH]cc(C(F)(F)F)c12 [Example 104, (4-((4-(ethylamino)-5-(trifluoromethyl)-7H-pyrrolo[2,3-d]pyrimidine-2-yl)amino)-3-methoxyphenyl)(4-morpholinopiperidine-1-yl)methanone] | 89% | 41% | 100% | 100% | 87% | 100% | 100% | 100% | 100% | 89% | 100% | 66% | 67% | 26%
CC1(Nc2nc(Nc3cnn([C@H]4CCN(C5COC5)C[C@@H]4F)c3Cl)nc3[nH]cc(C#N)c23)CC1 [Example 52, 2-((5-chloro-1-((3S,4S)-3-fluoro-1-(oxetane-3-yl)piperidine-4-yl)-1H-pyrazole-4-yl)amino)((1-methylcyclopropyl)amino)-7H-pyrrolo[2,3-d]pyrimidine-5-carbonitrile] | 41% | 1.3% | 21% | 100% | 0.4% | 100% | 6.2% | 66% | 2.2% | 77% | 4.3% | 28% | 36% | 3.9%
CNc1nc(Nc2ccc(C(=O)N3CCOCC3)cc2OC)nc2[nH]cc(C#N)c12 [Example 1, 2-((2-methoxy-4-(morpholine-4-carbonyl)phenyl)amino)-4-(methylamino)-7H-pyrrolo[2,3-d]pyrimidine-5-carbonitrile] | 96% | 61% | 89% | 100% | 73% | 100% | 99% | 100% | 100% | 70% | 90% | 23% | 72% | 90%
